This passage reports IC50 results from US20240209011A1, “HETEROAROMATIC PHOSPHONIUM SALTS FOR TREATING CANCER” (FLORATEK PHARMA S.A., priority 2021, published 2024).

What all share (type): cell-based
One assay deals with breast cancer cell. Description: Activity against breast cancer cells. The conditions noted are these: breast cancer cell growth; Tables 5A and B. The procedure:
(§1) Antitumor activity of the compounds and doxorubicin as a positive control was assessed by using the CellTiter-Blue Cell Viability Assay (Promega, #G8082) or CellTiter-Glow® Luminescent Cell Viability assay (Promega #G7572) according to the manufacturer's instructions. The compounds were tested at 5 or 6 concentrations in half-log increments (highest concentration 30 μM or 100 μM) in duplicate or triplicate well conditions.
(§2) Tumor cells were grown at 37° C. in a humidified atmosphere with 5% CO2 in RPMI 1640 or DMEM medium, supplemented with 10% (v/v) fetal calf serum and 50 μg/ml gentamicin for up to 20 passages, and were passaged once or twice weekly. Cells were harvested using TrypLE or PBS buffer containing 1 mM EDTA, and the percentage of viable cells is determined using a CASY Model TI cell counter (OMNI Life Science). Cells were harvested from exponential phase cultures, counted and plated in 96 well flat-bottom microtiter plates at a cell density depending on the cell line's growth rate (4,000-20,000 cells/well depending on the cell line's growth rate, up to 60,000 for hematological cancer cell lines) in RPMI 1640 or DMEM medium supplemented with 10% (v/v) fetal calf serum and 50 μg/ml gentamicin (140 μl/well). Cultures were incubated at 37° C. and 5% CO2 in a humidified atmosphere. After 24 h, 10 μl of test compounds or control medium were added, and left on the cells for another 72 h. Compounds were serially diluted in DMSO, transferred in cell culture medium, and added to the assay plates. The DMSO concentration was kept constant at <0.3% v/v across the assay plate. Viability of cells was quantified by the CellTiter-Blue® cell viability assay (Promega G8081) or CellTiter-Glow® Luminescent Cell Viability assay (Promega #G7572). Fluorescence (FU) was measured by using the EnSpire® multimode plate reader (Perkin Elmer) (excitation X=570 nm, emission λ=600 nm). Luminescence was measured with a microplate luminometer (Promega or PerkinElmer).
(§3) Sigmoidal concentration-response curves were fitted to the data points (test-versus-control, T/C values) obtained for each tumor model using 4 parameter non-linear curve fit (Charles River DRS Datawarehouse Software) or with GraphPad prism 5.02 software. IC50 values are reported as absolute IC50 values, being the concentration of test compound at the intersection of the concentration-response curves with T/C=50% Cell lines tested are presented in Table 1.

Another assay has as its system colon cancer cell. Description: Activity against colon cancer cells. The following applies: colon cancer cell growth; summary of Tables 7A-7D. The procedure: as §1, §2, §3
For the next assay, the system named is leukaemia cell. In words: Activity against leukaemia cells. The conditions noted are these: leukaemia cell growth; Tables 13A and 13B. The procedure:
as §1, §2, §3

For a further assay, the system named is 22Rv1. In words: Cell viability assay (CellTiter-Blue/CellTiter-Glow). The conditions noted are these: Homo sapiens; prostate carcinoma cell line 22Rv1; absolute IC50; 72 h. How it is done: as §1, §2, §3
The test system of the next assay is HCT-116. Described as above. The following applies: Homo sapiens; colon carcinoma cell line HCT-116; absolute IC50; 72 h. How it is done: as §1, §2, §3
The test system of a further assay is HL-60. Described as above. The following applies: Homo sapiens; leukaemia cell line HL-60; absolute IC50; 72 h. How it is done:
as §1, §2, §3

A further assay deals with LNCaP. Described as above. The following applies: Homo sapiens; prostate carcinoma cell line LNCaP; absolute IC50; 72 h. The procedure:
as §1, §2, §3

Another assay deals with LoVo. Described as above. The conditions noted are these: Homo sapiens; colon carcinoma cell line LoVo; absolute IC50; 72 h. The procedure: as §1, §2, §3
The subject of the next assay is MCF-7. The description is as above. The conditions noted are these: Homo sapiens, MCF7; breast carcinoma cell line MCF-7; absolute IC50; 72 h. The procedure:
as §1, §2, §3

A further assay concerns MDA-MB-468. Described as above. The conditions noted are these: Homo sapiens; breast carcinoma cell line MDA-MB-468; absolute IC50; 72 h. How it is done: as §1, §2, §3
The test system of a further assay is PC-3. The description is as above. The conditions noted are these: Homo sapiens; prostate carcinoma cell line PC-3; absolute IC50; 72 h. How it is done: as §1, §2, §3
In another assay the test system is parental H69 cells. The description is as above. The following applies: Homo sapiens, NCI-H69; SCLC parental H69 cells. How it is done:
as §1, §2, §3

The next assay concerns prostate cancer cell. In words: Activity against prostate cancer cells. The following applies: prostate cancer cell growth; text summary of Table 21. How it is done: as §1, §2, §3

A value given as a limit tells only on which side of the number the result lay.

A word on the IC50: it is the concentration needed to halve the response being measured.

As to `O=c1cc(-c2ccc(CCC[P+](c3ccccc3)(c3ccccc3)c3ccccc3)cc2)oc2c(O)c(O)ccc12` [SND176, (3-(4-(7,8-Dihydroxy-4-oxo-4H-chromen-2-yl)phenyl)propyl)triphenylphosphonium bromide], the IC50 with breast cancer cell is < 20 µM; in the assay with colon cancer cell it was < 20 µM; in the assay with leukaemia cell it was < 20 µM; in the assay with 22Rv1 it was 8.18 µM; in the assay on HCT-116, 8.68 µM; in the assay on HL-60, 1.43 µM. Moreover, the IC50 in the assay with LNCaP stood at 3.66 µM; in the assay with LoVo, 8.6 µM; in the assay on MCF-7, 18.3 µM; in the assay with MDA-MB-468, 1.42 µM; in the assay on PC-3, 7.3 µM; in the assay with parental H69 cells, 7 µM. In addition, the IC50 in the assay on prostate cancer cell was < 10 µM.
